Legend:
Format in all cases: in vivo
radish sprouts [1] = assay: L-tyrosine or L-phenylalanine addition effect 2, radish sprouts at 21 or 17.5 vol% oxygen; details: 25 or 50 mg/L, 7 days; for kaempferol content: in every oxygen concentration (21 or 17.5 vol%); for rate of increase in the kaempferol content: low-oxygen concentration (17.5 vol%)
Method: (§1) The amount of kaempferol and quercetin was measured after all of the glycosides of kaempferol and quercetin were hydrolyzed and converted into aglycones. The actual procedure was as follows. After each sample was milled, 2.0 g of the milled product was weighed. After 40 mL of 70% ethanol was added, the sample was suspended with a Polytron homogenizer at room temperature at 20.000 rpm for 1 minute. 1 mL of the suspension was dispensed and weighed into a glass test tube, and 1 mL of 2 N hydrochloric acid was added. After being mixed with a vortex, the mixture was heated at 100° C. for 30 minutes with a heat block. After heating was completed, the resulting product was cooled with ice for at least 5 minutes. After cooling, 5 mL of hexane was added, and the mixture was shaken horizontally 20 times. After centrifugation at 3.000 rpm for 5 minutes at 4° C. with a cooled centrifuge, the upper layer was discarded. 5 mL of ethyl acetate was added, and the mixture was shaken horizontally with a shaker at room temperature at 250 rpm for 10 minutes. After centrifugation with a large cooled centrifuge at 4° C. at 3.000 rpm for 5 minutes, the upper layer was collected in a glass test tube for drying. 5 mL of ethyl acetate was added again to the lower layer, and the mixture was shaken horizontally with a shaker at room temperature at 250 rpm for 10 minutes. After centrifugation at 3.000 rpm at 4° C. for 5 minutes, the upper layer was collected in a glass test tube for drying. The collected upper layer was dried with nitrogen at 60° C. with a nitrogen spray dryer. After drying was complete, 1 mL of an aqueous solution of 70% ethanol was added, and the mixture was treated with an ultrasonic generator for 1 minute to dissolve it with a vortex. After being passed through a 0.45-µm filter, the solution was subjected to HPLC to perform KMP aglycone analysis, thereby determining the amount of KMP aglycones.
Aqueous solutions containing L-phenylalanine in a concentration of 25 or 50 mg/L, and aqueous solutions containing L-tyrosine in a concentration of 25 or 50 mg/L were prepared. As a test plant, radish sprouts were prepared. The test plant was given one of the aqueous solution in an amount of 10 ml/day for 7 days and grown in the dark in an oxygen concentration of 21 vol% or 17.5 vol%. After 7 days, the content of kaempferol and quercetin was measured in the same manner as in section B1-2 above.

radish sprouts [2] = assay: L-tyrosine or L-phenylalanine addition effect 1, radish sprouts; details: for effect on the quercetin content / kaempferol content: 21 vol% oxygen; for kaempferol content: aqueous solution 25-400 mg/L, 10 ml/day for 7 days, dark
Method: as §1
(§2) Aqueous solutions containing L-phenylalanine in a concentration of 25, 50, 100, 200, or 400 mg/L, aqueous solutions containing L-tyrosine in a concentration of 25, 50, 100, 200, or 400 mg/L, and aqueous solutions containing both L-tyrosine and L-phenylalanine in a concentration of 25, 50, 100, 200, or 400 mg/L were prepared. As test plants, radish sprouts and broccoli sprouts were prepared. The test plants were given one of the aqueous solutions in an amount of 10 ml/day for 7 days and grown in the dark in an oxygen concentration of 21 vol%. After 7 days, the content of kaempferol and quercetin was measured for each test plant in the same manner as in section B1-2 above. […] Additionally, quercetin was not detected in broccoli sprouts regardless of the addition of L-tyrosine and L-phenylalanine.

broccoli sprouts = assay: L-tyrosine or L-phenylalanine addition effect 1, broccoli sprouts; details: for kaempferol content: aqueous solution 25-400 mg/L, 10 ml/day for 7 days, dark; for kaempferol content / quercetin content: 21 vol% oxygen; for quercetin content: regardless of the addition
Method: as §1, §2

| SMILES | effect on plant growth (total length and weight) (radish sprouts [1]; 21 or 17.5 vol% oxygen) | kaempferol content (radish sprouts [1]) | rate of increase in the kaempferol content (radish sprouts [1]) | effect on plant growth (total length and weight) (radish sprouts [2]; 25-400 mg/L, 7 days) | effect on the quercetin content (radish sprouts [2]; 25-400 mg/L, 7 days) | kaempferol content (radish sprouts [2]) | effect on plant growth (total length and weight) (broccoli sprouts; 25-400 mg/L, 7 days) | kaempferol content (broccoli sprouts) | quercetin content (broccoli sprouts; 7 days) |
| --- | --- | --- | --- | --- | --- | --- | --- | --- | --- |
| N[C@@H](Cc1ccc(O)cc1)C(=O)O [L-tyrosine] | no clear effect | increased | significantly increased | no clear effect | no significant effect | increased | no clear effect | increased | not detected |
| N[C@@H](Cc1ccccc1)C(=O)O [L-phenylalanine] |  | increased | significantly increased |  | no significant effect | increased |  | increased | not detected |

Source: patent US20230321030A1, “KAEMPFEROL AGLYCONE-CONTAINING EXTRACT” (OTSUKA PHARMACEUTICAL CO., LTD., priority 2020, published 2023)
